For one assay, the target named is T1, human μ-calpain (Homo sapiens, UniProt P07384).
T1 construct: purchased Calbiochem
T1 sequence (P07384 1-714): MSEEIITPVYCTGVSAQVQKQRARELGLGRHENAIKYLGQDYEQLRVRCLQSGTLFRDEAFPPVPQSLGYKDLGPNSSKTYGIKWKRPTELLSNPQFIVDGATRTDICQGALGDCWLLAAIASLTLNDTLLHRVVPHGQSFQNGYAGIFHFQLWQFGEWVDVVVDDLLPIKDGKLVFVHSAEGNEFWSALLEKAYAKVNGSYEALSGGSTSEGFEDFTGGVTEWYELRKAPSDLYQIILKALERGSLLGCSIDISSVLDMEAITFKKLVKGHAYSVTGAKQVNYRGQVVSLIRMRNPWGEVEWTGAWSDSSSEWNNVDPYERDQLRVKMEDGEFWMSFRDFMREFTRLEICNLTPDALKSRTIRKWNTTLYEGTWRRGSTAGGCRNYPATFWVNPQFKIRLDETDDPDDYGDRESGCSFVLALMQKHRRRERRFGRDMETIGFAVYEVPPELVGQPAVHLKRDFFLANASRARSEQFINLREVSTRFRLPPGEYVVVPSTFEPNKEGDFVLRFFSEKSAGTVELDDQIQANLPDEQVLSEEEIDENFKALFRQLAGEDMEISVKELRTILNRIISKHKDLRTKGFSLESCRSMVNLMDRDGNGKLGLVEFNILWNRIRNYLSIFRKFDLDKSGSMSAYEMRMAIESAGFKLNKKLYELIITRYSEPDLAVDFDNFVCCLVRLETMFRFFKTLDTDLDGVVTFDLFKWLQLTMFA
T1 sequence (P04632 1-268 partner): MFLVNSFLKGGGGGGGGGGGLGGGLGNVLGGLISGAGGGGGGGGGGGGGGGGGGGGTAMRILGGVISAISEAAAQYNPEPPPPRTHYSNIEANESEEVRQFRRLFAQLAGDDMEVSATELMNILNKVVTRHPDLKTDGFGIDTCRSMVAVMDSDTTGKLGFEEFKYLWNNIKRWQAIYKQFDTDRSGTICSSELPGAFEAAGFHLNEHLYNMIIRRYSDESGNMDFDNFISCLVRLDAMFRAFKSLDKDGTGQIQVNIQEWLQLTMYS
The assay can be described thus: Enzymatic calpain inhibition assay. Format: biochemical. Conditions: substrate Suc-Leu-Tyr-AMC, read-out: Calp I IC50. As for the experimental part:
The Ki value was also determined in some cases. These criteria were used to measure the inhibitory effect of the compounds (I) on calpain I, calpain II and cathepsin B.
Enzymatic Calpain Inhibition Assay
The inhibitory properties of calpain inhibitors are tested in 100 μl of a buffer containing 100 mM imidazole pH 7.5, 5 mM L-Cystein-HCl, 5 mM CaCl2, 250 μM of the calpain fluorogenic substrate Suc-Leu-Tyr-AMC (Sigma) (Sasaki et al., J. Biol. Chem., 1984, 259, 12489-12949) dissolved in 2.5 μl DMSO and 0.5 μg of human μ-calpain (Calbiochem). The inhibitors dissolved in 1 μl DMSO are added to the reaction buffer. The fluorescence of the cleavage product 7-amino-4-methylcoumarin (AMC) is followed in a SPECTRAmax GEMINI XS (Molecular Device) fluorimeter at λex=360 nm and λem=440 nm at 30° C. during 30 min at intervals of 30 sec in 96-well plates (Greiner). The initial reaction velocity at different inhibitor concentrations is plotted against the inhibitor concentration and the IC50 values determined graphically.

The subject of assay [1] is cellular calpains in C2C12 myoblasts. The assay can be described thus: Calpain inhibition assay in C2C12 myoblasts. Conditions: 2 h incubation, calcium ionophore Br-A-23187, read-out: Calp I IC50 Myoblast. Format: cell-based. As for the experimental part:
Calpain Inhibition Assay in C2C12 Myoblasts
This assay is aimed at monitoring the ability of the substance to inhibit cellular calpains. C2C12 myoblasts are grown in 96-well plates in growth medium (DMEM, 20% foetal calf serum) until they reach confluency. The growth medium is then replaced by fusion medium (DMEM, 5% horse serum). 24 hours later the fusion medium is replaced by fusion medium containing the test substances dissolved in 1 μl DMSO. After 2 hours of incubation at 37° C. the cells are loaded with the calpain fluorogenic substrate Suc-Leu-Tyr-AMC at 400 μM in 50 μl of a reaction buffer containing 135 mM NaCl; 5 mM KCl; 4 mM CaCl2; 1 mM MgCl2; 10 mM Glucose; 10 mM HEPES pH 7.25 for 20 min at room temperature. The calcium influx, necessary to activate the cellular calpains, is evoked by the addition of 50 μl reaction buffer containing 20 μM of the calcium ionophore Br-A-23187 (Molecular Probes). The fluorescence of the cleavage product AMC is measured as described above during 60 min at 37° C. at intervals of 1 min. The IC50 values are determined as described above. Comparison of the IC50 determined in the enzymatic calpain inhibition assay to the IC50 determined in the C2C12 myoblasts calpain inhibiton assay, allows to evaluate the cellular uptake or the membrane permeability of the substance.

Assay [2] concerns Primary fibroblasts from donors with Friedreich Ataxia (FRDA). The assay can be described thus: BSO assay (cell viability under BSO-induced oxidative stress). It is filed as cell-based, human. Conditions: 24 h preincubation, 1 mM BSO; for EC50: Homo sapiens, Fibroblast. The method, then: Primary fibroblasts were derived from donors with molecular diagnosis for Friedreich Ataxia (FRDA) and control donors with no mitochondrial disease. Cell lines were obtained from Coriell Cell Repositories (Camden, N.J.; catalog numbers GM04078, GM08402 and GM08399 respectively). All cell types were diagnosed on the molecular level for intronic […] triplet repeat length of at least 400-450 repeats using a PCR-based method. Experiments were carried out as described in the literature (M. L. Jauslin et al., Human Mol. Genet., 2002, 11, 3055-3063): Cells were seeded in microtiter plates at a density of 4'000 cells per 100 μl in growth medium consisting of 25% (v/v) M199 EBS and 64% (v/v) MEM EBS without phenol red (Bioconcept, Allschwil, Switzerland) supplemented with 10% (v/v) fetal calf serum (PAA Laboratories, Linz, Austria), 100 U/ml penicillin, 100 μg/ml streptomycin (PAA Laboratories, Linz, Austria), 10 μg/ml insulin (Sigma, Buchs, Switzerland), 10 ng/ml EGF (Sigma, Buchs, Switzerland), 10 ng/ml bFGF (PreproTech, Rocky Hill, N.J.) and 2 mM glutamine (Sigma, Buchs, Switzerland). The cells were incubated in the presence of various test compounds for 24 h before addition of L-buthionine-(S,R)-sulfoximine (BSO) to a final concentration of 1 mM. Cell viability was measured after the first signs of toxicity appeared in the BSO-treated controls (typically after 16 to 48 h). The cells were stained for 60 min at room temperature in PBS with 1.2 μM calcein AM and 4 μM ethidium homodimer (Live/Dead assay, Molecular Probes, Eugene, Oreg.). Fluorescence intensity was measured with a Gemini Spectramax XS spectrofluorimeter (Molecular Devices, Sunnyvale, Calif.) using excitation and emission wavelengths of 485 nm and 525 nm respectively.

On to `CCNC(=O)C(=O)[C@H](Cc1ccc(Cl)cc1)NC(=O)[C@H](CC(C)(C)C)NC(=O)CCCCC1CCS[S+]1[O-]` (stereo partly drawn) [Example 28], for which the values for the IC50 (on human μ-calpain; in assay [1]) were 180 nM and 4000 nM, respectively. In assay [2], the “BSO EC50” value was “inactive”.
Take `CCNC(=O)C(=O)[C@H](Cc1ccc(Cl)c(Cl)c1)NC(=O)[C@H](CC(C)C)NC(=O)CCCCC1CCSS1` (stereo partly drawn) [Example 31]: the IC50 – broadly, the midpoint of a concentration-inhibition curve – on human μ-calpain stood at 30 nM; in assay [1], 2500 nM. A half-maximal effect in assay [2] (EC50) was put at 15000 nM.
With `CCNC(=O)C(=O)[C@H](Cc1ccc(Cl)cc1Cl)NC(=O)[C@@H](NC(=O)CCCCC1CCSS1)C(C)C` (stereo partly drawn) [Example 33], the values for the IC50 (on human μ-calpain; in assay [1]) were 100 nM and 40000 nM, respectively. In assay [2], the “BSO EC50” value was “inactive”.
With `CCNC(=O)C(=O)[C@H](Cc1ccc(Cl)cc1Cl)NC(=O)[C@H](CC(C)C)NC(=O)CCCCC1CCSS1` (stereo partly drawn) [Example 35], the IC50 was 50 nM at human μ-calpain and 3000 nM in assay [1]. Also, in assay [2], the “BSO EC50” value was “inactive”.
Turning to `CCNC(=O)C(=O)[C@H](Cc1ccc(Cl)cc1Cl)NC(=O)[C@H](CC(C)C)NC(=O)CCCCC1CCS[S+]1[O-]` (stereo partly drawn) [Example 36], the IC50 was 40 nM on human μ-calpain and 5000 nM in assay [1]. In addition, in assay [2], it took 3000 nM to reach a half-maximal effect (EC50).
Turning to `CCNC(=O)C(=O)[C@H](Cc1ccc(F)cc1)NC(=O)[C@@H](NC(=O)CCCCC1CCSS1)C(C)C` (stereo partly drawn) [Example 37], the values for the IC50 (on human μ-calpain; in assay [1]) were 100 nM and 2500 nM, respectively. Also, the “BSO EC50” value in assay [2] was “inactive”.
For `CCNC(=O)C(=O)[C@H](Cc1ccc(F)cc1)NC(=O)[C@@H](NC(=O)CCCCC1CCS[S+]1[O-])C(C)C` (stereo partly drawn) [Example 38], the IC50 worked out at 180 nM at human μ-calpain and 7000 nM in assay [1]. In addition, the concentration giving a half-maximal response (EC50) (in general, the concentration that produces a half-maximal response) in assay [2] came to 20000 nM.
For `CCNC(=O)C(=O)[C@H](Cc1ccc(F)cc1)NC(=O)[C@H](CC(C)C)NC(=O)CCCCC1CCS[S+]1[O-]` (stereo partly drawn) [Example 40] the same measures were 35 nM, 15000 nM and 3000 nM.
The matching figures for `CCNC(=O)C(=O)[C@H](Cc1ccc(Br)cc1)NC(=O)[C@@H](NC(=O)CCCCC1CCS[S+]1[O-])C(C)C` (stereo partly drawn) [Example 54]: 150 nM, 8000 nM and 5000 nM.
With `CCNC(=O)C(=O)[C@H](Cc1ccc(Br)cc1)NC(=O)[C@@H](NC(=O)CCCCC1CCSS1)C(C)CC` (stereo partly drawn) [Example 74], the figures for the IC50 (at human μ-calpain; in assay [1]) were 180 nM and 9000 nM, respectively. In assay [2], this compound came in with a half-maximal effective concentration (EC50) of 3000 nM.
For the compound `CCNC(=O)C(=O)[C@H](Cc1ccc(Br)cc1)NC(=O)[C@@H](NC(=O)CCCCC1CCS[S+]1[O-])C(C)CC` (stereo partly drawn) [Example 75], the IC50 at human μ-calpain was 750 nM; in assay [1], 9000 nM. Besides, in assay [2], the midpoint of the response, the EC50, lay at 6000 nM.
The matching figures for `CCNC(=O)C(=O)[C@H](Cc1ccc(O)cc1)NC(=O)[C@@H](NC(=O)CCCCC1CCSS1)C(C)C` (stereo partly drawn) [Example 80]: 150 nM, 2500 nM and 6000 nM.
`CCNC(=O)C(=O)[C@H](Cc1ccc(O)cc1)NC(=O)[C@H](CC(C)C)NC(=O)CCCCC1CCSS1` (stereo partly drawn) [Example 82]: the concentration for half-maximal inhibition (IC50) worked out at 40 nM at human μ-calpain and 10000 nM in assay [1]. The compound further returned an EC50 in assay [2] of 15000 nM.
As for `CCNC(=O)C(=O)[C@H](Cc1ccc(OC)cc1)NC(=O)[C@@H](NC(=O)CCCCC1CCSS1)C(C)C` (stereo partly drawn) [Example 84], the IC50 worked out at 400 nM on human μ-calpain and 4000 nM in assay [1]. Besides, it took 2000 nM to reach a half-maximal effect in assay [2] (EC50).
For `CCNC(=O)C(=O)[C@H](Cc1ccc(OC)cc1)NC(=O)[C@@H](NC(=O)CCCCC1CCS[S+]1[O-])C(C)C` (stereo partly drawn) [Example 85] the same measures were 80 nM, 900 nM and 5000 nM.
Consider `CCNC(=O)C(=O)[C@H](Cc1ccc(OC)cc1)NC(=O)[C@H](CC(C)C)NC(=O)CCCCC1CCS[S+]1[O-]` (stereo partly drawn) [Example 95], for which the IC50 on human μ-calpain was found to be 35 nM; in assay [1], 2500 nM. This compound also returned an EC50 in assay [2] of 10000 nM.
Take `CCNC(=O)C(=O)[C@H](Cc1ccc(C)cc1)NC(=O)[C@@H](NC(=O)CCCCC1CCS[S+]1[O-])C(C)C` (stereo partly drawn) [Example 105]: the values for the IC50 (at human μ-calpain; in assay [1]) were 80 nM and 1000 nM, respectively. In assay [2], this compound showed a 50% effective concentration (EC50) of 200 nM.
For `CCNC(=O)C(=O)[C@H](Cc1ccc(C)cc1)NC(=O)[C@H](CC(C)C)NC(=O)CCCCC1CCS[S+]1[O-]` (stereo partly drawn) [Example 111] the same measures were 25 nM, 1200 nM and 3000 nM.
The matching figures for `CCNC(=O)C(=O)[C@H](Cc1ccc(C)cc1)NC(=O)[C@@H](NC(=O)CCCCC1CCSS1)C(C)CC` (stereo partly drawn) [Example 116]: 300 nM, 1000 nM and 2000 nM.
For the compound `CCNC(=O)C(=O)[C@H](Cc1ccc(C(F)(F)F)cc1)NC(=O)[C@@H](NC(=O)CCCCC1CCSS1)C(C)C` (stereo partly drawn) [Example 122], the figures for the half-maximal inhibitory concentration (IC50) (at human μ-calpain; in assay [1]) were 200 nM and 1100 nM, respectively. In assay [2], this compound displayed an EC50 of 5000 nM.
As for `CCNC(=O)C(=O)[C@H](Cc1cccc(C(F)(F)F)c1)NC(=O)[C@H](CC(C)C)NC(=O)CCCCC1CCSS1` (stereo partly drawn) [Example 128], the half-maximal inhibitory concentration (IC50) on human μ-calpain was determined as 100 nM; in assay [1], 15000 nM. The compound further returned an EC50 in assay [2] of 20000 nM.
The matching figures for `CCNC(=O)C(=O)[C@H](Cc1cccc(C(F)(F)F)c1)NC(=O)[C@H](CC(C)C)NC(=O)CCCCC1CCS[S+]1[O-]` (stereo partly drawn) [Example 129]: 50 nM, 4000 nM and 2000 nM.
